Data: patent publication US10591496B2, “Analyte extraction apparatus and method” (Sphere Medical Limited, priority 2013, dated 2020)

What was measured:
[1] = Zeitlinger et al. 2011, cited from earlier work
[2] = free and bound Vancomycin fractions by SPE extraction and Gibbs reaction colorimetry; assay type: in vitro ADME; settings: commercially available whole human serum spiked with 29 μM Vancomycin, absorbance at 589 nm, n=3, error = standard deviation
Protocol: A 1 ml whole serum sample (WHS) spiked with Vancomycin is applied to a 30 mg/1 ml reversed phase Strata™-X (polystyrene-divinylbenzene-N-vinylpyrrolidone copolymer) SPE column from Phenomenex (Torrance, Calif.). The column is washed firstly with 2 ml water to remove weakly bound impurities. This washing step may be repeated if necessary. Then a known volume (1 ml) of an organic solvent such as, but not limited to, methanol is used to elute the free Vancomycin fraction from the sorbent. This optionally may be followed by another organic washing step, e.g. another washing step with an organic solvent, which may be the same solvent or a different solvent as used in the elution step. The bound Vancomycin fraction is then eluted from the SPE column using a known volume (0.5 ml) of a mixture of one-third water and two-thirds methanol (by volume).
A 350 μl fraction of each elute is then transferred into separate vials. Then 50 μl of 3.625 mM Gibbs in methanol is added to each vial, followed by 40 μl of 0.4 M sodium hydroxide in borate buffer or water, which initiates the coupling reaction and results in an immediate colour change. After a shake, typically 350 μl of each mixture is transferred into a cuvette and their spectra are measured via a spectrophotometer. […]

Question: For `CN[C@H](CC(C)C)C(=O)N[C@H]1C(=O)N[C@@H](CC(N)=O)C(=O)N[C@H]2C(=O)N[C@H]3C(=O)N[C@H](C(=O)N[C@H](C(=O)O)c4cc(O)cc(O)c4-c4cc3ccc4O)[C@H](O)c3ccc(c(Cl)c3)Oc3cc2cc(c3O[C@@H]2O[C@H](CO)[C@@H](O)[C@H](O)[C@H]2O[C@H]2C[C@](C)(N)[C@H](O)[C@H](C)O2)Oc2ccc(cc2Cl)[C@H]1O` [Vancomycin], which mean fraction bound ([1]; often quoted mean) is on record?
Answer: 55%

Question: What about the “protein bound (variation)” value ([1]; range of protein binding) of the same molecule?
Answer: 10-82%

Question: What about the “percentage of Vancomycin free” value ([2]; methanol elute) of the same molecule?
Answer: 63±12%

Question: And the “percentage of Vancomycin bound” value ([2]; water/methanol (1:2) elute)?
Answer: 37±2%
